Measured values published in patent US20250340563A1, “FUSED PYRIDAZINE DERIVATIVES AS NLRP3 INHIBITORS” (Takeda Pharmaceutical Company Limited, priority 2022, published 2025).

Target: NLRP3 inflammasome (Homo sapiens, UniProt Q96P20)
Assay: IL-1β assay in IFN-γ-differentiated, LPS-primed, ATP-activated THP-1 cells (ELISA)
Format: cell-based
Settings: 50 ng/mL LPS priming, 2.5 mM ATP activation, 2 hours
Experimental: Monocytic THP-1 cells (ATCC: TIB-202) are maintained in accordance with the provider's instructions in RPMI media (Life Technologies, Cat #A10491-01); RPMI is supplemented with 10% heat inactivated fetal bovine serum (Hyclone Cat #SH30396.03). The cells are differentiated into macrophages by the addition of 25 ng/mL IFN-7 (PeproTech, Cat #300-02-100UG) for 24 hours at 37° C./5% CO2. Media is exchanged with fresh media with no FBS, and the cells are treated with 50 ng/mL LPS (priming step) for 24 hours at 37° C./5% CO2 (LPS-EK: Invivogen, Cat #tlrl-peklps). Media is exchanged with fresh media with no FBS. The cells are plated at 40,000 cells per well in 384-well flat-bottom cell culture plates (Costar 3764) containing compounds (added in 1:1000) in a 1:3.16 serial dilution series in DMSO and are incubated for 30 minutes at 37° C./5% CO2. The NLRP3 inflammasome is activated with the addition of 2.5 mM ATP (Sigma Cat #A3377) and the cells are incubated for 2 hours at 37° C./5% CO2. At the end of the incubation period, 40 μL supernatant is removed, and […] are monitored using an ELISA (Human […], R&D systems, Cat #DY201) in accordance with the manufacturer's instructions.
The IC50 values are calculated from a plot of percentage of inhibition versus the inhibitor concentration by a logistics curve fit according to: Y=[Bottom+(Top−Bottom)]/(1+10^[(Log IC50−X)·Hill Slope], where Y is the % inhibition at the inhibitor concentration, X, “Bottom” is the lowest inhibition value, i.e. 0%, “Top” is the maximum inhibition value, i.e. 100%, and the “Hill Slope” describes the slope of the sigmoidal curve between the “Bottom” and “Top” values. The curve fitting was conducted with internally developed software.

Sequence of NLRP3 inflammasome (Q96P20 whole entry): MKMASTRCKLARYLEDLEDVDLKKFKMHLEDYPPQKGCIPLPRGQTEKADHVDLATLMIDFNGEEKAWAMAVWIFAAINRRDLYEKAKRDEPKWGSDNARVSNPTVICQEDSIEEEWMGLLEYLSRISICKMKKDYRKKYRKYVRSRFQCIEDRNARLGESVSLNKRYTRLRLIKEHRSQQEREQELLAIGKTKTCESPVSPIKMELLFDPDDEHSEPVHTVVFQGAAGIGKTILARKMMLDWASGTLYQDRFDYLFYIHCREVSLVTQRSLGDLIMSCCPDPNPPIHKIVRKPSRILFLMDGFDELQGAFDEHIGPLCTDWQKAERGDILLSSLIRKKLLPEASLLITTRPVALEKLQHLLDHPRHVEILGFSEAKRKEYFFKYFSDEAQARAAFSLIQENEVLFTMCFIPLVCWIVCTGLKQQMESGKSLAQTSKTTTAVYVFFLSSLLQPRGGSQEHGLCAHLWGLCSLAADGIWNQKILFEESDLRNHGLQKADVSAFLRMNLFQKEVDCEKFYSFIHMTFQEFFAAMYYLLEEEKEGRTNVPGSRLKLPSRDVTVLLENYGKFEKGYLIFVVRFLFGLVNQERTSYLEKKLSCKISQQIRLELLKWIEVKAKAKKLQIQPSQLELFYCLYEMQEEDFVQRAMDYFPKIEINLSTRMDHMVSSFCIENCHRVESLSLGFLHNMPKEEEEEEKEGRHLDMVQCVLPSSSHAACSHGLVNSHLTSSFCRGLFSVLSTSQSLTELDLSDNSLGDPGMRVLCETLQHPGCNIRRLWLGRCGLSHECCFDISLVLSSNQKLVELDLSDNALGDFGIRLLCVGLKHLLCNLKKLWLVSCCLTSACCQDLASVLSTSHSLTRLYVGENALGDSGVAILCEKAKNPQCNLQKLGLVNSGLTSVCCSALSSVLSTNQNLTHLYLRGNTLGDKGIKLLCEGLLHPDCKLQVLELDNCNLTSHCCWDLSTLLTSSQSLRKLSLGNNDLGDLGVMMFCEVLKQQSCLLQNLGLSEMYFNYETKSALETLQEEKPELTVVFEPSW

SMILES	IC50 [nM]
F[C@@H]1C[C@@H](Nc2nnc(-c3ccc(Cl)cc3)c3ccccc23)CN(C2CC2)C1 [Example 54, 4-(4-chlorophenyl)-N-((3R,5R)-1-cyclopropyl-5-fluoropiperidin-3-yl)phthalazin-1-amine]	1200
CN1CCCC(Nc2nnc(-c3ccc(Cl)cc3)c3cnccc23)C1 (stereo not shown) [Example 62, 4-(4-chlorophenyl)-N-(1-methylpiperidin-3-yl)pyrido[3,4-d]pyridazin-1-amine]	3550
CN1CCC[C@H](Nc2nnc(-c3ccc(Cl)cc3)c3ccncc23)C1 [Example 65, (S)-1-(4-chlorophenyl)-N-(1-methylpiperidin-3-yl)pyrido[3,4-d]pyridazin-4-amine]	1220
CN1CCC[C@H](Nc2nnc(-c3ccc(Cl)cc3F)c3ccncc23)C1 [Example 70, (S)-1-(4-chloro-2-fluorophenyl)-N-(1-methylpiperidin-3-yl)pyrido[3,4-d]pyridazin-4-amine]	2000
Cc1nccc2c(NC3CCCN(C)C3)nnc(-c3ccc(Cl)cc3)c12 (stereo not shown) [Example 77, 4-(4-chlorophenyl)-5-methyl-N-(1-methylpiperidin-3-yl)pyrido[3,4-d]pyridazin-1-amine]	1510
CN1CCc2c(NC3CCCN(C)C3)nnc(-c3ccc(Cl)cc3)c2C1 (stereo not shown) [Example 99, 4-(4-chlorophenyl)-6-methyl-N-(1-methylpiperidin-3-yl)-5,6,7,8-tetrahydropyrido[3,4-d]pyridazin-1-amine]	2040
CCN1CCc2c(NC3CCCN(C)C3)nnc(-c3ccc(Cl)cc3)c2C1 (stereo not shown) [Example 100, 4-(4-chlorophenyl)-6-ethyl-N-(1-methylpiperidin-3-yl)-5,6,7,8-tetrahydropyrido[3,4-d]pyridazin-1-amine]	2690
CN1CCCC(Nc2nnc(-c3ccc(Cl)cc3)c3c2CN(C2CC2)CC3)C1 (stereo not shown) [Example 103, 1-(4-chlorophenyl)-6-cyclopropyl-N-(1-methylpiperidin-3-yl)-5,6,7,8-tetrahydropyrido[3,4-d]pyridazin-4-amine]	3630
CC(=O)N1CCc2c(NC3CCCN(C)C3)nnc(-c3ccc(Cl)cc3)c2C1 (stereo not shown) [Example 104, 1-(4-(4-chlorophenyl)-1-((1-methylpiperidin-3-yl)amino)-7,8-dihydropyrido[3,4-d]pyridazin-6(5H)-yl)ethan-1-one]	1660
CN1CCCC(Nc2nnc(-c3ccc(Cl)cc3)c3c2CCN(S(C)(=O)=O)C3)C1 (stereo not shown) [Example 106, 4-(4-chlorophenyl)-N-(1-methylpiperidin-3-yl)-6-(methylsulfonyl)-5,6,7,8-tetrahydropyrido[3,4-d]pyridazin-1-amine]	3310
CN1CCCC(Nc2nnc(-c3ccc(Cl)cc3)c3c2CN(S(C)(=O)=O)CC3)C1 (stereo not shown) [Example 107, 1-(4-chlorophenyl)-N-(1-methylpiperidin-3-yl)-6-(methylsulfonyl)-5,6,7,8-tetrahydropyrido[3,4-d]pyridazin-4-amine]	1780
CN1CC(Nc2nnc(-c3ccc(Cl)cc3)c3ccccc23)CC(F)(F)C1 (stereo not shown) [Example 108, 4-(4-chlorophenyl)-N-(5,5-difluoro-1-methylpiperidin-3-yl)phthalazin-1-amine]	3160
CN1CCC(Nc2nnc(-c3ccc(Cl)cc3)c3ccccc23)C1=O (stereo not shown) [Example 109, 3-((4-(4-chlorophenyl)phthalazin-1-yl)amino)-1-methylpyrrolidin-2-one]	4900
CC(=O)N1CCCC(Nc2nnc(-c3ccc(Cl)cc3)c3ccccc23)C1 (stereo not shown) [Example 110, 1-(3-((4-(4-chlorophenyl)phthalazin-1-yl)amino)piperidin-1-yl)ethan-1-one]	4480
CN1CCCC(N(C)c2nnc(-c3ccc(Cl)cc3)c3ccccc23)C1 (stereo not shown) [Example 112, 4-(4-chlorophenyl)-N-methyl-N-(1-methylpiperidin-3-yl)phthalazin-1-amine]	4250

Compounds with a lower IC50, results first:

IC50 [nM]	SMILES
575	COc1ccc(-c2nnc(N[C@@H]3C[C@@H](F)CN(C4CC4)C3)c3ccccc23)cc1 [Example 55, N-((3R,5R)-1-cyclopropyl-5-fluoropiperidin-3-yl)-4-(4-methoxyphenyl)phthalazin-1-amine]
21	COc1ccc(-c2nnc(N[C@@H]3CCCN(C)C3)c3cnccc23)c(F)c1 [Example 57, (R)-1-(2-fluoro-4-methoxyphenyl)-N-(1-methylpiperidin-3-yl)pyrido[3,4-d]pyridazin-4-amine]
134	COc1ccc(-c2nnc(N[C@@H]3CCCN(CCF)C3)c3ccccc23)c(F)c1 [Example 61, (R)-4-(2-fluoro-4-methoxyphenyl)-N-(1-(2-fluoroethyl)piperidin-3-yl)phthalazin-1-amine]
381	CN1CCCC(Nc2nnc(-c3ccc(Cl)cc3)c3ccncc23)C1 (stereo not shown) [Example 63, 1-(4-chlorophenyl)-N-(1-methylpiperidin-3-yl)pyrido[3,4-d]pyridazin-4-amine]
838	CN1CCCC(Nc2nnc(-c3ccc(Cl)cc3F)c3cnccc23)C1 (stereo not shown) [Example 69, 4-(4-chloro-2-fluorophenyl)-N-(1-methylpiperidin-3-yl)pyrido[3,4-d]pyridazin-1-amine]
183	COc1ccc(-c2nnc(N[C@@H]3CCCN(C)C3)c3c(C)nccc23)c(O)c1 [Example 78, (R)-5-methoxy-2-(5-methyl-4-((1-methylpiperidin-3-yl)amino)pyrido[3,4-d]pyridazin-1-yl)phenol]
3	CN1CCC[C@@H](Nc2nnc(-c3ccc(C(F)(F)F)cc3O)c3ccncc23)C1 [Example 90, (R)-2-(4-((1-methylpiperidin-3-yl)amino)pyrido[3,4-d]pyridazin-1-yl)-5-(trifluoromethyl)phenol]
307	CN1CCC[C@@H](Nc2nnc(-c3ccccc3C(F)F)c3ccncc23)C1 [Example 91, (R)-1-(2-(difluoromethyl)phenyl)-N-(1-methylpiperidin-3-yl)pyrido[3,4-d]pyridazin-4-amine]
60	CN1CCC[C@@H](Nc2nnc(-c3ccc(OC(F)F)cc3F)c3ccncc23)C1 [Example 92, (R)-1-(4-(difluoromethoxy)-2-fluorophenyl)-N-(1-methylpiperidin-3-yl)pyrido[3,4-d]pyridazin-4-amine]
102	C[C@]1(O)C[C@@H](Nc2nnc(-c3ccc(Cl)cc3O)c3cnccc23)C1 [Example 94, cis-5-chloro-2-(1-((3-hydroxy-3-methylcyclobutyl)amino)pyrido[3,4-d]pyridazin-4-yl)phenol]
804	CN1CCc2c(-c3ccc(Cl)cc3)nnc(NC3CCCN(C)C3)c2C1 (stereo not shown) [Example 101, 1-(4-chlorophenyl)-6-methyl-N-(1-methylpiperidin-3-yl)-5,6,7,8-tetrahydropyrido[3,4-d]pyridazin-4-amine]
692	CCN1CCc2c(-c3ccc(Cl)cc3)nnc(NC3CCCN(C)C3)c2C1 (stereo not shown) [Example 102, 1-(4-chlorophenyl)-6-ethyl-N-(1-methylpiperidin-3-yl)-5,6,7,8-tetrahydropyrido[3,4-d]pyridazin-4-amine]
955	CC(=O)N1CCc2c(-c3ccc(Cl)cc3)nnc(NC3CCCN(C)C3)c2C1 (stereo not shown) [Example 105, 1-(1-(4-chlorophenyl)-4-((1-methylpiperidin-3-yl)amino)-7,8-dihydropyrido[3,4-d]pyridazin-6(5H)-yl)ethan-1-one]
